Where “and” joins values, the source holds several entries; their conditions need not be identical. Equal entries are not always repeated. Toxic doses and inconclusive results are not listed. Rule as the data show it: active = T/C of 150% or more; inactive = T/C below 125%.
Tested on: L1210 leukemia ip in BDF1 mice, survival T/C
Test: NCI In Vivo Anticancer Drug Screen. Data for tumor model L1210 Leukemia (intraperitoneal) in B6D2F1 (BDF1) mice
Conditions: endpoint: mean survival time, higher = longer survival
Outline: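 In this screen, tumor-bearing mice given compound are compared to those given vehicle, and their survival values are reported as a treated-to-control quotient.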

[1] = dose: 100.0 mg/kg/injection, schedule: Q04DX003 (ip), vehicle: Klucel (hydroxypropylcellulose) (HPC)
[2] = dose: 200.0 mg/kg/injection, schedule: Q04DX003 (ip), vehicle: Klucel (hydroxypropylcellulose) (HPC)
[3] = dose: 400.0 mg/kg/injection, schedule: Q04DX003 (ip), vehicle: Klucel (hydroxypropylcellulose) (HPC)
[4] = dose: 50.0 mg/kg/injection, schedule: Q01DX001 (ip), vehicle: saline
[5] = dose: 100.0 mg/kg/injection, schedule: Q01DX001 (ip), vehicle: saline
[6] = dose: 200.0 mg/kg/injection, schedule: Q01DX001 (ip), vehicle: saline
[7] = dose: 400.0 mg/kg/injection, schedule: Q01DX001 (ip), vehicle: saline

Measured: T/C

CC(=O)[C@H]1CC[C@H]2[C@@H]3C[C@H](C)C4=CC(=O)CC[C@]4(C)[C@H]3C(=O)C[C@]12C
inactive: dose: 20.0 mg/kg/injection, schedule: Q01DX009 (ip), vehicle: carboxymethylcellulose (CMC) 93 % of control | dose: 25.0 mg/kg/injection, schedule: Q01DX015 (sc), vehicle: steriod suspending solution 104 % of control | dose: 32.0 mg/kg/injection, schedule: Q03HX008 (ip), vehicle: Klucel (hydroxypropylcellulose) (HPC) 93 % of control | dose: 32.0 mg/kg/injection, schedule: Q03HX016 (ip), vehicle: Klucel (hydroxypropylcellulose) (HPC) 92 % of control | dose: 32.0 mg/kg/injection, schedule: Q03HX024 (ip), vehicle: Klucel (hydroxypropylcellulose) (HPC) 97 % of control | dose: 40.0 mg/kg/injection, schedule: Q01DX009 (ip), vehicle: carboxymethylcellulose (CMC) 96 % of control | dose: 50.0 mg/kg/injection, schedule: Q01DX015 (sc), vehicle: steriod suspending solution 96 % of control | dose: 64.0 mg/kg/injection, schedule: Q03HX008 (ip), vehicle: Klucel (hydroxypropylcellulose) (HPC) 92 % of control | dose: 64.0 mg/kg/injection, schedule: Q03HX016 (ip), vehicle: Klucel (hydroxypropylcellulose) (HPC) 94 % of control | dose: 64.0 mg/kg/injection, schedule: Q03HX024 (ip), vehicle: Klucel (hydroxypropylcellulose) (HPC) 93 % of control | dose: 67.0 mg/kg/injection, schedule: Q01DX Z (sc), vehicle: steriod suspending solution 103 % of control | dose: 80.0 mg/kg/injection, schedule: Q01DX Z (sc), vehicle: steriod suspending solution 106 % of control | dose: 100.0 mg/kg/injection, schedule: Q01DX015 (sc), vehicle: steriod suspending solution 98 % of control | dose: 100.0 mg/kg/injection, schedule: Q01DX Z (sc), vehicle: steriod suspending solution 109 % of control | dose: 120.0 mg/kg/injection, schedule: Q01DX Z (sc), vehicle: steriod suspending solution 101 % of control | dose: 123.0 mg/kg/injection, schedule: Q01DX009 (ip), vehicle: Klucel (hydroxypropylcellulose) (HPC) 100 % of control | dose: 123.0 mg/kg/injection, schedule: Q03HX008 (ip), vehicle: Klucel (hydroxypropylcellulose) (HPC) 95 % of control | dose: 123.0 mg/kg/injection, schedule: Q03HX016 (ip), vehicle: Klucel (hydroxypropylcellulose) (HPC) 93 % of control | dose: 123.0 mg/kg/injection, schedule: Q03HX024 (ip), vehicle: Klucel (hydroxypropylcellulose) (HPC) 98 % of control | dose: 150.0 mg/kg/injection, schedule: Q01DX Z (sc), vehicle: steriod suspending solution 106 % of control | dose: 160.0 mg/kg/injection, schedule: Q01DX009 (ip), vehicle: carboxymethylcellulose (CMC) 93 % of control | dose: 180.0 mg/kg/injection, schedule: Q01DX Z (sc), vehicle: steriod suspending solution 97 % of control | dose: 200.0 mg/kg/injection, schedule: Q01DX015 (sc), vehicle: steriod suspending solution 102 % of control and 104 % of control | dose: 220.0 mg/kg/injection, schedule: Q01DX Z (sc), vehicle: steriod suspending solution 97 % of control | dose: 255.0 mg/kg/injection, schedule: Q01DX001 (ip), vehicle: Klucel (hydroxypropylcellulose) (HPC) 96 % of control | dose: 255.0 mg/kg/injection, schedule: Q01DX009 (ip), vehicle: Klucel (hydroxypropylcellulose) (HPC) 103 % of control | dose: 255.0 mg/kg/injection, schedule: Q04DX003 (ip), vehicle: Klucel (hydroxypropylcellulose) (HPC) 97 % of control | dose: 255.0 mg/kg/injection, schedule: Q08DX002 (ip), vehicle: Klucel (hydroxypropylcellulose) (HPC) 104 % of control | dose: 270.0 mg/kg/injection, schedule: Q01DX Z (sc), vehicle: steriod suspending solution 89 % of control | dose: 320.0 mg/kg/injection, schedule: Q01DX009 (ip), vehicle: carboxymethylcellulose (CMC) 87 % of control | dose: 330.0 mg/kg/injection, schedule: Q01DX Z (sc), vehicle: steriod suspending solution 100 % of control | dose: 400.0 mg/kg/injection, schedule: Q01DX015 (sc), vehicle: steriod suspending solution 102 % of control | dose: 495.0 mg/kg/injection, schedule: Q01DX Z (sc), vehicle: steriod suspending solution 94 % of control | dose: 512.0 mg/kg/injection, schedule: Q08DX002 (ip), vehicle: Klucel (hydroxypropylcellulose) (HPC) 103 % of control | dose: 640.0 mg/kg/injection, schedule: Q01DX009 (ip), vehicle: carboxymethylcellulose (CMC) 92 % of control

Nc1nc(N)c(CCCOc2ccc(NC(=O)CBr)cc2)c(N)n1
inactive: dose: 12.5 mg/kg/injection, schedule: Q01DX001 (ip), vehicle: Klucel (hydroxypropylcellulose) (HPC) 98 % of control | dose: 25.0 mg/kg/injection, schedule: Q01DX001 (ip), vehicle: Klucel (hydroxypropylcellulose) (HPC) 100 % of control | dose: 50.0 mg/kg/injection, schedule: Q01DX001 (ip), vehicle: Klucel (hydroxypropylcellulose) (HPC) 105 % of control

COC(=O)c1ccccc1NC(=S)NC(=O)/C=C/c1ccccc1
inactive: dose: 100.0 mg/kg/injection, schedule: Q01DX009 (ip), vehicle: Klucel (hydroxypropylcellulose) (HPC) 94 % of control | [1] 97 % of control | dose: 200.0 mg/kg/injection, schedule: Q01DX009 (ip), vehicle: Klucel (hydroxypropylcellulose) (HPC) 103 % of control | [2] 95 % of control | dose: 400.0 mg/kg/injection, schedule: Q01DX009 (ip), vehicle: Klucel (hydroxypropylcellulose) (HPC) 106 % of control | [3] 91 % of control

CCOC(=O)NC(=S)[S][Sb]([S]C(=S)NC(=O)OCC)[S]c1nc2ccc(N=Nc3ccc(NS(=O)(=O)c4ccc(NC(=O)C(Sc5ncnc6nc[nH]c56)SC5N=C=Nc6nc[nH]c65)cc4)cc3)cc2s1 (stereo unspecified)
inactive: dose: 75.0 mg/kg/injection, schedule: Q04DX003 (ip), vehicle: saline 100 % of control | dose: 150.0 mg/kg/injection, schedule: Q04DX003 (ip), vehicle: saline 91 % of control | dose: 300.0 mg/kg/injection, schedule: Q04DX003 (ip), vehicle: saline 98 % of control

NCCCCc1nc(N)nc(N)c1-c1ccc(Cl)cc1
inactive: dose: 25.0 mg/kg/injection, schedule: Q01DX001 (ip), vehicle: saline 104 % of control | [4] 96 % of control | [5] 102 % of control

O=[N+]([O-])c1cc(Cl)ccc1S(=O)(=O)CC(Cl)c1ccccc1 (stereo unspecified)
inactive: dose: 100.0 mg/kg/injection, schedule: Q01DX001 (ip), vehicle: acetone 104 % of control | dose: 100.0 mg/kg/injection, schedule: Q01DX009 (ip), vehicle: acetone 98 % of control | dose: 100.0 mg/kg/injection, schedule: Q04DX003 (ip), vehicle: acetone 108 % of control | dose: 200.0 mg/kg/injection, schedule: Q01DX001 (ip), vehicle: acetone 104 % of control | dose: 200.0 mg/kg/injection, schedule: Q01DX009 (ip), vehicle: acetone 87 % of control and 88 % of control | dose: 200.0 mg/kg/injection, schedule: Q04DX003 (ip), vehicle: acetone 100 % of control | dose: 400.0 mg/kg/injection, schedule: Q01DX001 (ip), vehicle: acetone 101 % of control | dose: 400.0 mg/kg/injection, schedule: Q01DX009 (ip), vehicle: acetone 106 % of control and 92 % of control | dose: 400.0 mg/kg/injection, schedule: Q04DX003 (ip), vehicle: acetone 100 % of control

O=C(CCCC(=O)NNC(=O)NC(=O)C(Cl)(Cl)Cl)NNC(=O)NC(=O)C(Cl)(Cl)Cl
inactive: [4] 108 % of control | [5] 96 % of control | [6] 102 % of control | [7] 102 % of control

C/C(=N/OC(=O)N(C)C)c1ccc([N+](=O)[O-])cc1
inactive: [5] 104 % of control | [6] 104 % of control | [7] 104 % of control

CC(C)(C)N=Cc1ccccc1O.CC(C)(C)N=Cc1ccccc1O.[Cu]
inactive: dose: 6.25 mg/kg/injection, schedule: Q04DX003 (ip), vehicle: saline with Tween-80 94 % of control | dose: 12.5 mg/kg/injection, schedule: Q04DX003 (ip), vehicle: saline with Tween-80 104 % of control | dose: 25.0 mg/kg/injection, schedule: Q04DX003 (ip), vehicle: saline with Tween-80 96 % of control

CCOC1c2cc(OC)ccc2C(=O)CCN1S(=O)(=O)c1ccc(C)cc1 (stereo unspecified)
inactive: [1] 92 % of control | [2] 91 % of control | [3] 96 % of control

CC(Nc1nc(SCc2ccccc2)c2ncn(C3OC(CO)C(O)C3O)c2n1)C(=O)O (stereo unspecified)
inactive: dose: 50.0 mg/kg/injection, schedule: Q01DX001 (ip), vehicle: carboxymethylcellulose (CMC) 107 % of control | dose: 100.0 mg/kg/injection, schedule: Q01DX001 (ip), vehicle: carboxymethylcellulose (CMC) 109 % of control | dose: 200.0 mg/kg/injection, schedule: Q01DX001 (ip), vehicle: carboxymethylcellulose (CMC) 104 % of control | dose: 400.0 mg/kg/injection, schedule: Q01DX001 (ip), vehicle: carboxymethylcellulose (CMC) 104 % of control

— PubChem BioAssay AID248 (DTP/NCI, 2004)
